Earlier results in patent US5424332A, “Pharmaceutical composition and process for the production thereof” (priority 1993, dated 1995).

Test system: aflotoxin toxic effects

## O=C(O)/C=C/C(=O)O [fumaric acid]
  toxic effects of aflotoxin: reduces the toxic effects
